Laboratory results: US10144715B2, “Piperazine derivatives as liver X receptor modulators” (priority 2014, dated 2018)
Where two headings read alike, the source gives them in different places.

Columns and labels:
LXR β LBD protein [1] = biological target: T1, LXR β LBD protein (Homo sapiens (Human), UniProt P55055); test: biochemical; type: biochemical
Experimental: Two μL of the DMSO solutions were transferred to the plate and 38 μL of 10 nM LXRα-LBD or LXRβ-LBD (2×) were added immediately to the wells. The plate was shaken for 5 min at rt on an orbital micro shaker (DPC MicroMix® 5), after which 40 μL of 200 nM fluorescein-SRC2-3 peptide and 20 nM Terbium-anti-GST-antibody (Cat# PV3550, Life Technologies, Grand Island, N.Y.) solution (4×) were added to all. The plate was sealed and shaken for 2 min at rt, and incubated at rt for 2 h without agitation. […] The delay and window times were set at 100 and 200 microseconds, respectively. […] The percent control vs. compound concentration data were fit into a four-parameter model, and EC50 values were calculated from the fit as the concentrations corresponding to the inflection points on the concentration-response curves.
Target sequence in this assay (P55055 222-460): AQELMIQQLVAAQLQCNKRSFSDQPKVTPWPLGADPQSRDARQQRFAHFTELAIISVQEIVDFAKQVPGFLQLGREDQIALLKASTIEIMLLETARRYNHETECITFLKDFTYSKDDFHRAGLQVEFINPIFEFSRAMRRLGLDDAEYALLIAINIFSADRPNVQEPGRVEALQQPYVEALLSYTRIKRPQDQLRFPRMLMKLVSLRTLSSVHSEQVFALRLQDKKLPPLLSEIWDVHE

LXR β LBD protein [2] = biological target: T1, LXR β LBD protein; test: biochemical; type: binding; details: read-out: LXRβ Binding Ki
Target sequence in this assay (P55055 222-460 limits assumed): as the sequence (P55055 222-460) above

LXR α LBD protein [3] = biological target: T2, LXR α LBD protein (Homo sapiens (Human), UniProt Q13133); test: LXR α radioligand binding assay (SPA, competition with [3H]TO901317); details: read-out: LXRα Binding Ki
T2 sequence (Q13133 209-447): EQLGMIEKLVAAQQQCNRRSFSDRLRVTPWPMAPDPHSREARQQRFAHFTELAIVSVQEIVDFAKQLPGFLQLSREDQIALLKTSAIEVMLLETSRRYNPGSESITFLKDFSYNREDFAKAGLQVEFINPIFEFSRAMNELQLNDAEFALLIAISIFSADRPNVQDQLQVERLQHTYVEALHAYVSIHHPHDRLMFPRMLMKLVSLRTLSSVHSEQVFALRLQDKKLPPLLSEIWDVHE

LXR α LBD protein [4] = biological target: T2, LXR α LBD protein; test: Human LXRα coactivator recruitment FRET assay, agonist mode; type: biochemical
Method in brief: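 LXRα- or LXRβ-LBD at 10 nM (2×) mixed with compound in DMSO, then fluorescein-SRC2-3 peptide 200 nM and Tb-anti-GST antibody 20 nM (4×) added; 2 h at rt. Time-resolved FRET read, 100 µs delay, 200 µs window; EC50 from four-parameter fit of percent control.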

[5] = biological target: Gal4 DNA binding domain fused to the LBD of LXRβ in HEK293 cells (Homo sapiens (Human), UniProt P55055); test: cell-based
Sequence of Gal4 DNA binding domain fused to the LBD of LXRβ in HEK293 cells (P55055 222-460 limits assumed): as the sequence (P55055 222-460) above

[6] = biological target: Gal4 DNA binding domain fused to the LBD of LXRα in HEK293 cells (Homo sapiens (Human), UniProt Q13133); test: LXR luciferase transcriptional reporter gene assay, agonist mode, LXRα; type: cell-based
Sequence of Gal4 DNA binding domain fused to the LBD of LXRα in HEK293 cells (Q13133 209-447): as the sequence (Q13133 209-447) above

[7] = Biological Test Example 3, agonist mode
[8] = agonist mode, read-out: Cell LXRα EC50
[9] = Biological Test Example 2, agonist mode, read-out: Cell LXRα EC50
[10] = agonist mode, read-out: Cell LXRβ EC50
[11] = agonist mode, read-out: FRET LXRβ EC50

## CS(=O)(=O)c1cccc(N2CCN(Cc3ccc(C(F)(F)F)nc3)[C@@H](c3ccccc3Cl)C2)c1 (single isomer, unassigned) [46-57]
LXR β LBD protein [1]
  FRET LXRβ efficacy: 55 (56) %
LXR β LBD protein [1]; read-out: FRET LXRβ EC50
  EC50: 55 nM
LXR β LBD protein [2]
  Ki: 61 nM
LXR α LBD protein [3]
  Ki: 188 nM
LXR α LBD protein [4]; agonist mode
  EC50: 499 nM
  FRET LXRα efficacy: 41%
[5]
  Cell LXRβ efficacy: 383 (38) %
  EC50: 383 nM
[6]
  Cell LXRα efficacy: 1244 (42) %
[6]; read-out: Cell LXRα EC50
  EC50: 1240 nM

## CS(=O)(=O)c1cccc(N2CCN(Cc3ccc(OC(F)(F)F)cc3)[C@@H](c3ccccc3)C2)c1 (single isomer, unassigned) [46-23]
LXR β LBD protein [1]
  FRET LXRβ efficacy: 710 (57) %
LXR β LBD protein [1]; read-out: FRET LXRβ EC50
  EC50: 710 nM
LXR β LBD protein [2]
  Ki: 112 nM
LXR α LBD protein [3]
  Ki: 1040 nM
LXR α LBD protein [4]; agonist mode
  EC50: 7040 nM
  FRET LXRα efficacy: 47%
[5]
  Cell LXRβ efficacy: 1432 (29) %
  EC50: 1430 nM
[6]
  Cell LXRα efficacy: 4367 (45) %
[6]; read-out: Cell LXRα EC50
  EC50: 4370 nM

## CS(=O)(=O)c1cccc(N2CCN(Cc3ccc(OC(F)F)cc3)[C@@H](c3ccccc3)C2)c1 [46-11, (S)-1-(4-(difluoromethoxy)benzyl)-4-(3-(methylsulfonyl)phenyl)-2-phenylpiperazine]
LXR β LBD protein [1]
  FRET LXRβ efficacy: 600 (20) %
LXR β LBD protein [1]; read-out: FRET LXRβ EC50
  EC50: 600 nM
LXR β LBD protein [2]
  Ki: 445 nM
LXR α LBD protein [3]
  Ki: 3290 nM
LXR α LBD protein [4]
  FRET LXRα efficacy: 17300 (33) %
LXR α LBD protein [4]; agonist mode
  EC50: 17300 nM
[5]
  EC50: > 20000 nM
[6]
  Cell LXRα efficacy: 3753 (7) %
  EC50: 3750 nM

## CS(=O)(=O)c1cccc(N2CCN(CC3CCOCC3)[C@@H](c3ccccc3)C2)c1 [51-5, (S)-4-(3-(methylsulfonyl)phenyl)-2-phenyl-1-((tetrahydro-2H-pyran-4-yl)methyl)piperazine]
LXR β LBD protein [1]; read-out: FRET LXRβ EC50
  EC50: > 50000 nM
LXR β LBD protein [2]; Biological Test Example 1
  Ki: 1020 nM
LXR α LBD protein [3]
  Ki: > 3330 nM
LXR α LBD protein [4]; [7]
  EC50: > 50000 nM
[5]
  EC50: > 20000 nM
[6]; read-out: Cell LXRα EC50
  EC50: > 20000 nM

## CS(=O)(=O)c1cc(F)cc(N2CCN(Cc3ccc(C(F)(F)F)nc3)C(c3ccccc3)C2)c1 (centres unmarked) [46-53, 4-(3-fluoro-5-(methylsulfonyl)phenyl)-2-phenyl-1-((6-(trifluoromethyl)pyridin-3-yl)methyl)piperazine]
LXR β LBD protein [1]; read-out: FRET LXRβ EC50
  EC50: 924 nM
LXR β LBD protein [2]
  Ki: 1520 nM
LXR α LBD protein [3]
  Ki: > 3330 nM
LXR α LBD protein [4]; agonist mode
  EC50: 2590 nM
  FRET LXRα efficacy: 46%
[5]
  EC50: 3280 nM
[5]; agonist mode
  Cell LXRβ efficacy: 3280 (28) %
[6]
  Cell LXRα efficacy: 11138 (23) %
[6]; [8]
  EC50: 11100 nM

## CS(=O)(=O)c1cccc(N2CCN(C[C@H]3CCN(CC(F)(F)F)C3)[C@@H](c3ccccc3)C2)c1 (single isomer, unassigned) [48-63]
LXR β LBD protein [1]; [7]
  FRET LXRβ efficacy: 1553 (30) %
LXR β LBD protein [1]; read-out: FRET LXRβ EC50
  EC50: 1550 nM
LXR β LBD protein [2]; Biological Test Example 1
  Ki: > 2500 nM
LXR α LBD protein [3]
  Ki: > 3330 nM
LXR α LBD protein [4]; [7]
  EC50: 11700 nM
  FRET LXRα efficacy: 14%
[5]
  EC50: > 20000 nM
[6]; [9]
  EC50: > 20000 nM

## CS(=O)(=O)c1cccc(N2CCN(C[C@H]3CC[C@@H](C(F)(F)F)CC3)[C@@H](c3ccc(F)cc3)C2)c1 [Cpd No 48-43, (S)-2-(4-fluorophenyl)-4-(3-(methylsulfonyl)phenyl)-1-(((1s,4R)-4-(trifluoromethyl)cyclohexyl)methyl)piperazine]
LXR β LBD protein [1]
  FRET LXRβ efficacy: 27 (43) %
LXR β LBD protein [1]; read-out: FRET LXRβ EC50
  EC50: 27 nM
LXR β LBD protein [2]
  Ki: 15 nM
LXR α LBD protein [4]; agonist mode
  EC50: 207 nM
  FRET LXRα efficacy: 48%
[5]
  Cell LXRβ efficacy: 47 (32) %
  EC50: 47 nM
[6]
  Cell LXRα efficacy: 240 (54) %
[6]; [8]
  EC50: 240 nM

## CS(=O)(=O)c1cccc(N2CCN(Cc3ccc(C(F)(F)F)cc3)[C@@H](c3ccccc3)C2)c1 (single isomer, unassigned) [46-15]
LXR β LBD protein [1]
  FRET LXRβ efficacy: 418 (45) %
LXR β LBD protein [1]; read-out: FRET LXRβ EC50
  EC50: 418 nM
LXR β LBD protein [2]
  Ki: 158 nM
LXR α LBD protein [4]; agonist mode
  EC50: 1520 nM
  FRET LXRα efficacy: 28%
[5]
  Cell LXRβ efficacy: 720 (26) %
  EC50: 720 nM
[6]
  Cell LXRα efficacy: 2993 (28) %
[6]; [8]
  EC50: 2990 nM

## benzyl 4-(3-(methylsulfonyl)phenyl)-2-phenylpiperazine-1-carboxylate [1-14]
LXR β LBD protein [1]; agonist mode
  FRET LXRβ efficacy: 25%
LXR α LBD protein [4]; agonist mode
  EC50: 1540 nM
  FRET LXRα efficacy: 27%
[5]; [10]
  EC50: > 20000 nM
[6]; read-out: Cell LXRα EC50
  EC50: > 20000 nM

## CC(C)[C@@H]1CN(c2ccc(F)c(S(C)(=O)=O)c2)CCN1C(=O)OC(C)(C)C [2-1, tert-butyl (R)-4-(4-fluoro-3-(methylsulfonyl)phenyl)-2-isopropylpiperazine-1-carboxylate]
LXR β LBD protein [1]; agonist mode
  FRET LXRβ efficacy: 74%
LXR β LBD protein [1]; [11]
  EC50: 56 nM
LXR β LBD protein [2]
  Ki: 209 nM
LXR α LBD protein [4]; agonist mode
  EC50: 901 nM
  FRET LXRα efficacy: 48%
[5]
  EC50: 684 nM
[5]; agonist mode
  Cell LXRβ efficacy: 684 (36) %
[6]
  Cell LXRα efficacy: 5252 (61) %
[6]; read-out: Cell LXRα EC50
  EC50: 5250 nM

## CS(=O)(=O)c1cccc(N2CCN(C[C@@H]3CCN(CC(F)(F)F)C3)[C@H](c3ccccc3)C2)c1 (single isomer, unassigned) [48-62]
LXR β LBD protein [1]
  EC50: 2100 nM
LXR α LBD protein [4]; [7]
  EC50: 9980 nM
  FRET LXRα efficacy: 39%
[5]
  EC50: 4680 nM
[5]; Biological Test Example 2, agonist mode
  Cell LXRβ efficacy: 4682 (8) %
[6]; [9]
  EC50: > 20000 nM

## tert-butyl 2-cyclohexyl-4-(3-(methylsulfonyl)phenyl)piperazine-1-carboxylate [1-11]
LXR β LBD protein [1]; agonist mode
  FRET LXRβ efficacy: 25%
LXR β LBD protein [1]; [11]
  EC50: 340 nM
LXR α LBD protein [4]; agonist mode
  EC50: 19100 nM
  FRET LXRα efficacy: 27%
[5]; agonist mode
  Cell LXRβ efficacy: 2%
[5]; [10]
  EC50: 15700 nM
[6]
  Cell LXRα efficacy: 16278 (16) %
[6]; read-out: Cell LXRα EC50
  EC50: 16300 nM

## Cc1ccccc1[C@@H]1CN(c2cccc(S(C)(=O)=O)c2)CCN1Cc1ccc(C(F)(F)F)nc1 (single isomer, unassigned) [46-45]
LXR β LBD protein [1]; agonist mode
  FRET LXRβ efficacy: 1524 (74) %
LXR β LBD protein [1]; read-out: FRET LXRβ EC50
  EC50: 1520 nM
LXR α LBD protein [4]; agonist mode
  EC50: 6570 nM
  FRET LXRα efficacy: 43%
[5]
  EC50: 7520 nM
[5]; agonist mode
  Cell LXRβ efficacy: 7516 (44) %
[6]; [8]
  EC50: > 20000 nM

## NS(=O)(=O)c1cccc(N2CCN(C[C@H]3CC[C@@H](C(F)(F)F)CC3)[C@H](c3ccccc3)C2)c1 (single isomer, unassigned) [48-34]
LXR β LBD protein [1]; agonist mode
  FRET LXRβ efficacy: 39%
LXR β LBD protein [1]; [11]
  EC50: 704 nM
LXR α LBD protein [4]; agonist mode
  EC50: 2310 nM
  FRET LXRα efficacy: 25%
[5]; agonist mode
  Cell LXRβ efficacy: 32%
[5]; [10]
  EC50: 3820 nM
[6]
  Cell LXRα efficacy: 9858 (48) %
[6]; read-out: Cell LXRα EC50
  EC50: 9860 nM

## tert-butyl 2-(2-bromophenyl)-4-(3-(methylsulfonyl)phenyl)piperazine-1-carboxylate [1-9]
LXR β LBD protein [1]; agonist mode
  FRET LXRβ efficacy: 32%
LXR β LBD protein [1]; [11]
  EC50: 564 nM
LXR α LBD protein [4]; agonist mode
  EC50: > 50000 nM
[5]; [10]
  EC50: > 20000 nM
[6]; read-out: Cell LXRα EC50
  EC50: > 20000 nM

## CS(=O)(=O)c1cccc(N2CCN(Cc3ccc(OC(F)(F)F)cc3)[C@H](c3ccccc3)C2)c1 (single isomer, unassigned) [46-22]
LXR β LBD protein [1]
  FRET LXRβ efficacy: 1273 (73) %
LXR β LBD protein [1]; read-out: FRET LXRβ EC50
  EC50: 1270 nM
LXR α LBD protein [4]; agonist mode
  EC50: 4620 nM
  FRET LXRα efficacy: 42%
[5]
  Cell LXRβ efficacy: 2095 (9) %
  EC50: 2100 nM
[6]; read-out: Cell LXRα EC50
  EC50: > 20000 nM

## CS(=O)(=O)c1cccc(N2CCN(Cc3ccc(C(F)(F)F)nc3)[C@H](c3ccccc3Cl)C2)c1 (single isomer, unassigned) [46-56]
LXR β LBD protein [1]
  FRET LXRβ efficacy: 2252 (40) %
LXR β LBD protein [1]; read-out: FRET LXRβ EC50
  EC50: 2250 nM
LXR α LBD protein [4]; agonist mode
  EC50: 27000 nM
  FRET LXRα efficacy: 47%
[5]
  EC50: > 20000 nM
[6]; read-out: Cell LXRα EC50
  EC50: > 20000 nM
